According to patent US20260184727A1, “SOLID FORMS OF MACROCYCLIC COMPOUNDS AND USES THEREOF” (AMGEN INC., priority 2024, published 2026):
≈ marks a conversion by molar mass, not a printed value. Like-named read-outs stand apart in the source and are kept apart here.

What was measured:
[1] = Moisture sorption analysis (DVS); format: physicochemical; details: for hygroscopicity by DVS isotherm / moisture uptake (DVS): 25° C.
Experimental: Moisture Sorption Analysis-Moisture sorption isotherm was determined using a DVS Endeavour at 25° C. in an aluminum pan with water as the solvent (closed loop) and nitrogen gas flow at 200 sccm. The sample was analyzed from 40% to 0% to 90% to 0% to 90% to 0% to 40% RH in 5% RH steps.

[2] = Moisture sorption analysis (DVS); format: physicochemical; details: for moisture uptake (DVS): 25° C.
[3] = Comparative solubilities of Form 1 and Form 1E in biorelevant media; format: physicochemical; details: for solubility: read-out: Solubility Conc
[4] = PK properties of Form 1E in male dogs under fasted and fed conditions; format: in vivo; details: for AUC(0-inf) / AUC(0-t) / CL/F / Cmax / MRT / Tmax / half-life: male, dog, plasma, po; for half-life: read-out: t1/2, z (converted)
[5] = Single dose dog PK, Form 1E compared to Compound A free base; format: in vivo, dogs; details: FIG. 5C
Experimental: The pharmacokinetic (PK) properties of Form 1E was evaluated in dogs.

[6] = Physical and chemical stability of Form 1E; format: physicochemical
[7] = 30 mg/kg, pH 2, male dogs, Study A, 30.0 mg/kg p.o., Vehicle 1 (water/malonic acid pH 2.0), Fasted
[8] = 30 mg/kg, pH 2, male dogs, Study A, 30.0 mg/kg p.o., Vehicle 1 (water/malonic acid pH 2.0), Fed (kibble)
[9] = 50 mg/kg, pH 7, male dogs, Study B, Vehicle 2 (water/MSA pH7.0), Fasted
[10] = 50 mg/kg, pH 7, male dogs, Study B, Vehicle 2 (water/MSA pH7.0), Fed (high fat)

With O=C1OCCCc2c(Cl)cc3[nH]ncc3c2-c2ncc3c(nc(OC[C@@]45CCCN4C[C@H](F)C5)nc3c2F)N2CCOC[C@H](C2)O1 [Form 1A] the “hygroscopicity by DVS isotherm” value [1] was “hygroscopic” and the “moisture uptake (DVS)” value ([2]; at 95% relative humidity) was 5.4 wt. %.
With O=C1OCCCc2c(Cl)cc3[nH]ncc3c2-c2ncc3c(nc(OC[C@@]45CCCN4C[C@H](F)C5)nc3c2F)N2CCOC[C@H](C2)O1 [Form 1B] the “hygroscopicity by DVS isotherm” value [1] was “hygroscopic” and the “moisture uptake (DVS)” value ([2]; at 95% relative humidity) was 4.7 wt. %.
O=C1OCCCc2c(Cl)cc3[nH]ncc3c2-c2ncc3c(nc(OC[C@@]45CCCN4C[C@H](F)C5)nc3c2F)N2CCOC[C@H](C2)O1 [Form 1E] gave a solubility ([3]; FaSSGF, pH 1.99, fassgf or other biorelevant) of 5990 µg/mL (≈ 9130 µM), a solubility ([3]; FaSSIF, pH 4.86, fassif) of 1730 µg/mL (≈ 2640 µM) and a solubility ([3]; FeSSIF, pH 4.58, fessif) of 2500 µg/mL (≈ 3810 µM). The solubility ([3]; PBS, pH 4.55, aqueous buffer) was 1300 µg/mL (≈ 1980 µM), the “solubility in several media relative to Form 1” value ([3]; several media, compared with Form 1) was “higher solubility” and the Equilibrium crystal form ([3]; solubility sample in FaSSGF) was “Form 1E”. The Equilibrium crystal form ([3]; solubility sample in FaSSIF) was “Form 1E”, the Equilibrium crystal form ([3]; solubility sample in FeSSIF) was “Form 1E” and the Equilibrium crystal form ([3]; solubility sample in H2O) was “Form 1E”. The Equilibrium crystal form ([3]; solubility sample in PBS) was “Form 1E”, the solubility ([3]; water, H2O, pH 3.93) was 7760 µg/mL (≈ 11800 µM) and the “plasma exposure (Cmax and AUC), fed versus fasted conditions” value ([4]; dogs, FIGS. 5D and 5E, kibble or high fat diet) was “did not show a difference”. The emesis ([4]; dogs, prior studies, 50 mg/kg and a high fat diet) was “suffered from emesis”, the AUC(0-inf) [4, 7] was 14.2 µM·h and the AUC(0-t) [4, 7] was 14.1 µM·h. For the same compound, the CL/F [4, 7] was 73.5 mL/min/kg, the Cmax [4, 7] was 5820 nM and the MRT [4, 7] was 3.16 h. It also gave a Tmax [4, 7] of 0.312 h, a half-life [4, 7] of 2.67 h and an AUC(0-inf) [4, 8] of 17 µM·h. For the same compound, the AUC(0-t) [4, 8] was 17 µM·h, the CL/F [4, 8] was 55.8 mL/min/kg and the Cmax [4, 8] was 4290 nM. For the same compound, the MRT [4, 8] was 4.14 h, the Tmax [4, 8] was 1.62 h and the half-life [4, 8] was 2.96 h. The half-life ([4]; 50 mg/kg, pH 7, male dogs, Study B, 50.0 mg/kg, Vehicle 2 (water/MSA pH7.0), Fasted) was 3.47 h, the half-life ([4]; 50 mg/kg, pH 7, male dogs, Study B, 50.0 mg/kg, Vehicle 2 (water/MSA pH7.0), Fed (high fat)) was 4.83 h and the AUC(0-inf) [4, 9] was 3.54 µM·h. For the same compound, the AUC(0-t) [4, 9] was 3.53 µM·h, the CL/F [4, 9] was 783 mL/min/kg and the Cmax [4, 9] was 1350 nM. The MRT [4, 9] was 3.79 h, the Tmax [4, 9] was 0.9 h and the AUC(0-inf) [4, 10] was 3.91 µM·h. For the same compound, the AUC(0-t) [4, 10] was 3.89 µM·h, the CL/F [4, 10] was 1160 mL/min/kg and the Cmax [4, 10] was 1050 nM. The MRT [4, 10] was 4.26 h, the Tmax [4, 10] was 1.5 h and the “improvement in plasma concentration compared to Compound A free base” value [5] was about 2 ×. The “hygroscopicity by DVS isotherm” value [1] was “non-hygroscopic”, the “moisture uptake (DVS)” value ([1]; at 90% relative humidity) was 0.6 wt. % and the “hygroscopicity compared to all other forms” value ([1]; compared to all other solid forms of Compound A) was “lowest hygroscopicity”. The physical stability ([6]; accelerated conditions) was “physically stable” and the “chemically stable for” value ([6]; at 5° C.) was “more than 2 years”.
O=C1OCCCc2c(Cl)cc3[nH]ncc3c2-c2ncc3c(nc(OC[C@@]45CCCN4C[C@H](F)C5)nc3c2F)N2CCOC[C@H](C2)O1 [Form 1] gave a solubility ([3]; FaSSGF, pH 2.06, fassgf or other biorelevant) of 4420 µg/mL (≈ 6740 µM), a solubility ([3]; FaSSIF, pH 7.15, fassif) of 35 µg/mL (≈ 53.3 µM) and a solubility ([3]; FeSSIF, pH 5.51, fessif) of 560 µg/mL (≈ 854 µM). The solubility ([3]; PBS, pH 7.04, aqueous buffer) was 10 µg/mL (≈ 15.2 µM), the Equilibrium crystal form ([3]; solubility sample in FaSSGF) was “Form 1” and the Equilibrium crystal form ([3]; solubility sample in FaSSIF) was “Form 1”. For the same compound, the Equilibrium crystal form ([3]; solubility sample in FeSSIF) was “Form 1”, the Equilibrium crystal form ([3]; solubility sample in H2O) was “Form 1” and the Equilibrium crystal form ([3]; solubility sample in PBS) was “Form 1”. The solubility ([3]; water, H2O, pH 8.73) was 0.3 µg/mL (≈ 0.457 µM).
For O=C1OCCCc2c(Cl)cc3[nH]ncc3c2-c2ncc3c(nc(OC[C@@]45CCCN4C[C@H](F)C5)nc3c2F)N2CCOC[C@H](C2)O1 [Form A1-A], the “hygroscopicity as per TGA and XRPD analysis” value ([2]; judged from TGA and XRPD, no DVS reported) was “hygroscopic”.
In the case of O=C1OCCCc2c(Cl)cc3[nH]ncc3c2-c2ncc3c(nc(OC[C@@]45CCCN4C[C@H](F)C5)nc3c2F)N2CCOC[C@H](C2)O1 [Form C1], the “hygroscopicity by DVS isotherm” value [1] is reported as “hygroscopic”, the “moisture uptake (DVS)” value ([1]; at 85% relative humidity) is reported as 4.0 wt. % and the “behaviour in DVS at 95% relative humidity” value ([2]; at 95% relative humidity) is reported as “deliquescence”.
For O=C1OCCCc2c(Cl)cc3[nH]ncc3c2-c2ncc3c(nc(OC[C@@]45CCCN4C[C@H](F)C5)nc3c2F)N2CCOC[C@H](C2)O1 [Form C-P], the “hygroscopicity by DVS isotherm” value [1] was “hygroscopic” and the “moisture uptake (DVS)” value ([1]; at 80% RH) was 3.08 wt. %.
